Tests used:
CV-A16 = assay: Post-treatment assay, antiviral spectrum; assay type: cell-based, Coxsackievirus A16
Experimental: (§1) We were also interested in the antiviral potential of ZAF-47 against other Enteroviruses. As such, we performed post-treatment assay on RD cells infected with other Enteroviruses such as CV-A16, CV-A6, Echo7, CV-B5, CV-A24 and EV-D68.
To determine the inhibitory profiles of the hits, post treatment assay was performed. Seeded 24-well plates, with 1.5 × 10^5 RD cells per well, were incubated overnight at 37 °C with 5% CO2. The seeded cells were infected with EV-A71 (100 µL per well, MOI = 1) for 1 h at 37 °C with 5% CO2 and then rinsed with 1 mL of PBS twice. […]
Measurement of the viral titres from collected supernatants was derived from viral plaque assays. To do this, 24-well plates, seeded with 2.4 × 10^5 RD cells per well, were used in plaque assays for EV-A71, EV-D68, Echo7, CV-A6, CV-A16 and CV-A24 while 24-well plates, seeded with 1.2 × 10^5 Vero cells per well, were used in plaque assays for CV-B5. Seeded cells were incubated overnight at 37 °C with 5% CO2. Viral supernatants were diluted from 10^−1 to 10^−7 in reduced serum DMEM before infecting the cells with a volume of 100 µL for 1 h at 37 °C with 5% CO2 (33 °C instead for EV-D68). Cells were rinsed twice with PBS before overlaying with 1 mL of reduced serum DMEM containing 0.5% agarose (Vivantis, Shah Alam, Malaysia). […] Subsequent formation of viral plaques was counted manually to quantify the viral titre in PFU/mL […]

EV-D68 = assay: Post-treatment assay, antiviral spectrum; assay type: cell-based, Enterovirus D68
Experimental: as §1
To determine the inhibitory profiles of the hits, post treatment assay was performed. Seeded 24-well plates, with 1.5 × 10^5 RD cells per well, were incubated overnight at 37 °C with 5% CO2. The seeded cells were infected with EV-A71 (100 µL per well, MOI = 1) for 1 h at 37 °C with 5% CO2 and then rinsed with 1 mL of PBS twice. Different concentrations of the hits were used to treat the infected cells for 12 h at 37 °C with 5% CO2. At 12 hpi, the plates were frozen and thawed for 2 cycles (−80°C; 37 °C) before collection of supernatants to measure the viral titres via viral plaque assay.
Measurement of the viral titres from collected supernatants was derived from viral plaque assays. To do this, 24-well plates, seeded with 2.4 × 10^5 RD cells per well, were used in plaque assays for EV-A71, EV-D68, Echo7, CV-A6, CV-A16 and CV-A24 while 24-well plates, seeded with 1.2 × 10^5 Vero cells per well, were used in plaque assays for CV-B5. Seeded cells were incubated overnight at 37 °C with 5% CO2. […] Subsequent formation of viral plaques was counted manually to quantify the viral titre in PFU/mL […]

EV-A71 IRES = assay: Bicistronic luciferase reporter assay; assay type: cell-based, human enterovirus A71 (EV-A71) strain 41; conditions: RD cells, various concentrations, 12 h
Experimental: To validate this finding, we also transfected RD cells with a bicistronic reporter construct which had been established and validated previously. Similarly, the transfected cells were treated with ZAF-47 at various concentrations and then incubated for 12 h before luminescence detection. The construct comprises a human cytomegalovirus (CMV) promoter with a downstream Renilla luciferase (R Luc) gene and an EV-A71 strain 41 IRES with a downstream firefly luciferase (F Luc) gene (Figure 4f). This means that R Luc can be expressed by the CMV promoter via cap-dependent translation while F Luc can be expressed by the EV-A71 IRES via cap-independent translation. An accurate determination of IRES activity would be to use the ratio of F Luc luminescence reading to R Luc luminescence reading (F Luc/R Luc). The transfected cells were also treated with negative control, DMSO and positive control, apigenin, an EV-A71 IRES inhibitor [53].
Seeded 96-well white plates (Corning), with 2 × 10^4 RD cells per well, were incubated overnight at 37 °C with 5% CO2. After which, a bicstronic luciferase reporter construct was used to transfect the cells, as described in our previous work, for 12 h at 37 °C with 5% CO2. […]

EV-A71 Passage 21 = assay: Post-treatment assay on EV-A71 passaged 21 times with ZAF-47 (resistant mutant generation); assay type: cell-based, human enterovirus A71 (EV-A71); conditions: supernatant from Passage 21, MOI = 1, RD cells
Experimental: Unfortunately, we were unable to obtain any resistant mutants as the viral titre for ZAF-47-treated remained lower than that of the controls at Passage 21. […] As a result, we hypothesize that ZAF-47 possibly targets host factor/s associated with EV-A71 RNA replication which makes it harder to generate resistant mutants.
Seeded 24-well plates, with 1.5 × 10^5 RD cells per well, were incubated overnight at 37 °C with 5% CO2. After which, the cells were subjected to EV-A71 infection (200 µL per well, MOI = 1) for 1 h before treatment with 800 µL of ZAF-47 at final concentration of 10 µM for 12 h at 37 °C with 5% CO2. Treatment with reduced serum DMEM and 0.1% DMSO functioned as negative and vehicle controls respectively. Upon 12 hpi, the supernatant was collected for viral plaque assay as well as to infect (200 µL) another seeded plate.

CC(=O)OC[C@]1(C)C(=O)CC[C@@]2(C)C(C/C=C3/C(=O)OC[C@@H]3Oc3cccc4cccnc34)=C(C)CC[C@@H]21 [ZAF-47, (14β)-(8′-Quinolinoxy)-3-ketone-9-dehydro-17-hydro-19-acetoxy–andrographolide]
viral titre (CV-A16; 10 µM, CV-A16-infected RD cells): reducing the viral titres of the above-listed enteroviruses significantly | IC50 (CV-A16; CVA16, CV-A16, Enterovirus A, drug treatment duration 16 h, RD cells): 1.38 µM | viral titre (EV-D68; 10 µM, EV-D68-infected RD cells): reducing the viral titres of the above-listed enteroviruses significantly | IC50 (EV-D68; EVD68, EV-D68, Enterovirus D, drug treatment duration 12 h, RD cells): 5.1 µM | IRES activity (F Luc/R Luc) (EV-A71 IRES): did not reduce IRES activity | inhibition of passaged virus (EV-A71 Passage 21): still capable of inhibiting the passaged virus dose-dependently

Source: PMC8880313, “Discovery of Novel Andrographolide Derivatives as Antiviral Inhibitors against Human Enterovirus A71” (Pharmaceuticals, 2022)
